The results in this text go back to patent US20250163104A1, “MACROCYCLIC IMMUNOMODULATORS” (priority 2021, published 2025).

In the assay the target is T1, human PD-1 / PD-L1-Ig binding on Jurkat cell line over-expressing human PD-1 (Jurkat-PD-1) (Homo sapiens, UniProt Q15116).
T1 construct: expressed in transfected cells; host or cells: Jurkat
The assay can be described thus: Jurkat-PD-1 Cell Binding High-Content Screening Assay (CBA). Format: cell-based. The settings on record: Jurkat-PD-1 cells, PE-labeled PD-L1-Ig 20 nM final; read-out: Jurkat HPD1_PDL1 IC50. The essentials: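 Compounds were preincubated with Jurkat-hPD-1 cells in DMEM plus 10% fetal calf serum for 2 h at 37° C. Phycoerythrin-labeled PD-L1-Ig (20 nM final) was then added for 1 hour. Cells were fixed in 4% paraformaldehyde with Hoechst 33342, and bound fluorescence was quantified by high-content imaging.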

Where a SMILES comes first, the peptide text is derived from it. Bridges are numbered along the chain shown (N, C = ends). [ ]: non-standard residue; d: D form. The star is where a group is joined. ξ: configuration not given here. Bip = N[C@@H](Cc1ccc(-c2ccccc2)cc1)C(=O)O; Phe(3-Me) = Cc1cccc(C[C@H](N)C(=O)O)c1; Val(3-OH) = CC(C)(O)[C@H](N)C(=O)O; hArg = N=C(N)NCCCC[C@H](N)C(=O)O; 2Thi = N[C@@H](Cc1cccs1)C(=O)O; Cha = N[C@@H](CC1CCCCC1)C(=O)O; Cit = NC(=O)NCCC[C@H](N)C(=O)O; Thr(3ξ) = CC(O)[C@H](N)C(=O)O; Carboxymethyl = O=C(O)C*; NMeA = CN[C@@H](C)C(=O)O; Nle = CCCC[C@H](N)C(=O)O; Orn = NCCC[C@H](N)C(=O)O; Dab = NCC[C@H](N)C(=O)O; Dap = NC[C@H](N)C(=O)O

T1 sequence (Q15116 25-288): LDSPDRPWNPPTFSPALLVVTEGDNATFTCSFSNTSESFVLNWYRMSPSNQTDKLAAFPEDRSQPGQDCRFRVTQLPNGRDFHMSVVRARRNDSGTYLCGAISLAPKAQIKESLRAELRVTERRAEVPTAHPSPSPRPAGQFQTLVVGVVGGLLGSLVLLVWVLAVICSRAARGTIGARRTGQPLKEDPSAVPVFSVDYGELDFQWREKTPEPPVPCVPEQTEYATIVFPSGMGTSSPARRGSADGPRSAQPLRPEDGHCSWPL

The IC50 is the concentration that gives 50% inhibition. For the compound `Cc1cccc(C[C@@H]2NC(=O)[C@H](CC(=O)O)NC(=O)[C@H](Cc3ccc(OCC(=O)O)cc3)NC(=O)[C@H](Cc3cnc[nH]3)NC(=O)CSC[C@@H](C(=O)N[C@@H](CCN)C(N)=O)NC(=O)[C@H](C(C)O)NC(=O)[C@H](C(C)(C)O)NC(=O)[C@H](CC3CCCCC3)NC(=O)[C@H](CCN)NC(=O)[C@@H](CC(C)C)NC(=O)[C@H](CCCN)NC(=O)[C@H](Cc3ccc(OCC(=O)O)cc3)NC(=O)[C@H](Cc3ccc(-c4ccccc4)cc3)NC(=O)[C@H](Cc3ccc(OCC(=O)O)cc3)NC2=O)c1` (stereo partly drawn) [Compound 2649] ({CH2CO}-HY(Carboxymethyl)D[Phe(3-Me)]Y(Carboxymethyl)[Bip]Y(Carboxymethyl)[Orn][dL][Dab][Cha][Val(3-OH)][Thr(3ξ)]C[Dab]-NH2; thioether N-14), the IC50 was 7.2 nM.
For the compound `CC(C)C[C@H]1NC(=O)[C@H](CCCN)NC(=O)[C@H](C(C)C)NC(=O)[C@H](Cc2ccc(-c3ccccc3)cc2)NC(=O)[C@H](C(C)C)NC(=O)[C@H](Cc2c[nH]c3ccccc23)NC(=O)[C@H](CC(=O)O)NC(=O)[C@H](Cc2ccc(OCC(=O)O)cc2)NC(=O)[C@H](CCCCNC(=N)N)NC(=O)CSC[C@@H](C(=O)N(C)[C@@H](C)C(N)=O)NC(=O)[C@H](CO)NC(=O)[C@H](C(C)C)NC(=O)[C@H](CC2CCCCC2)NC(=O)[C@H](CCN)NC1=O` [Compound 2569] ({CH2CO}-[hArg]Y(Carboxymethyl)DWV[Bip]V[Orn][dL][Dab][Cha]VSC[NMeA]-NH2; thioether N-14), the IC50 is 18.5 nM.
In the case of `CCCC[C@@H]1NC(=O)[C@H](CCN)NC(=O)[C@@H](CC(C)C)NC(=O)[C@H](CCCN)NC(=O)[C@H](CCCNC(N)=O)NC(=O)[C@H](Cc2ccc(-c3ccccc3)cc2)NC(=O)[C@H](C(C)C)NC(=O)[C@H](Cc2c[nH]c3ccccc23)NC(=O)[C@H](CC(=O)O)NC(=O)[C@H](Cc2ccc(O)cc2)NC(=O)[C@H](Cc2ccc(OCC(=O)O)cc2)NC(=O)CSC[C@@H](C(=O)N[C@@H](C)C(N)=O)NC(=O)[C@H]([C@@H](C)O)NC(=O)[C@H](C(C)C)NC1=O` [Compound 1166] ({CH2CO}-Y(Carboxymethyl)YDWV[Bip][Cit][Orn][dL][Dab][Nle]VTCA-NH2; thioether N-14), the IC50 turned out to be 58.3 nM.
Next, `Cc1cccc(C[C@@H]2NC(=O)[C@H](CC(=O)O)NC(=O)[C@H](Cc3ccc(OCC(=O)O)cc3)NC(=O)[C@H](CN)NC(=O)CSC[C@@H](C(=O)N[C@@H](C)C(=O)N[C@@H](CCC(=O)O)C(N)=O)NC(=O)[C@H]([C@@H](C)O)NC(=O)[C@H](C(C)C)NC(=O)[C@H](CC3CCCCC3)NC(=O)[C@H](CCN)NC(=O)[C@@H](CC(C)C)NC(=O)[C@H](CCCN)NC(=O)[C@H](CCCNC(N)=O)NC(=O)[C@H](Cc3ccc(-c4ccccc4)cc3)NC(=O)[C@H](C(C)C)NC2=O)c1` [Compound 1296] ({CH2CO}-[Dap]Y(Carboxymethyl)D[Phe(3-Me)]V[Bip][Cit][Orn][dL][Dab][Cha]VTCAE-NH2; thioether N-14): 13.5 nM.
With `CC(C)C[C@H]1NC(=O)[C@H](CCCN)NC(=O)[C@H](CCC(=O)O)NC(=O)[C@H](Cc2ccc(-c3ccccc3)cc2)NC(=O)[C@H](C(C)C)NC(=O)[C@H](Cc2cccs2)NC(=O)[C@H](CC(=O)O)NC(=O)[C@H](Cc2cccs2)NC(=O)[C@H](Cc2ccccc2)NC(=O)CSC[C@@H](C(=O)N[C@@H](C)C(N)=O)NC(=O)[C@H]([C@@H](C)O)NC(=O)[C@H](C(C)C)NC(=O)[C@H](CC2CCCCC2)NC(=O)[C@H](CCN)NC1=O` [Compound 2204] ({CH2CO}-F[2Thi]D[2Thi]V[Bip]E[Orn][dL][Dab][Cha]VTCA-NH2; thioether N-14), the IC50 was 24.4 nM.
